In data set [1] the target is T1, CYP2J2 (Homo sapiens, UniProt P51589).
T1 sequence (P51589 whole entry): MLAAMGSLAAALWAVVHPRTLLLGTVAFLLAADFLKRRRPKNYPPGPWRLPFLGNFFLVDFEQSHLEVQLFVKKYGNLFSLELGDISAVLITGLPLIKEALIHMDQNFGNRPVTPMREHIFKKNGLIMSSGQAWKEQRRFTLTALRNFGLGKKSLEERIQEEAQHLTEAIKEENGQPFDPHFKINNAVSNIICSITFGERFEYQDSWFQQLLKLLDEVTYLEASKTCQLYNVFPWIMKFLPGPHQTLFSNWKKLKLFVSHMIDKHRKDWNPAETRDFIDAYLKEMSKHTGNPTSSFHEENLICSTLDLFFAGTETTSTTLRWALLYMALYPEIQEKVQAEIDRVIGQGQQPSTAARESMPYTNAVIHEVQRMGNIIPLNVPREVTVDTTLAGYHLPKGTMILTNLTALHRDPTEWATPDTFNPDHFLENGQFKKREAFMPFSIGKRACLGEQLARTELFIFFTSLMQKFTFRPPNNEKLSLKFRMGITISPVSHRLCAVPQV
In words: in vitro.

Data set [2] deals with T1, CYP2J2. In words: in vitro. This is another data set of the same source.
For data set [3], the target named is T2, Cytochrome P450 1A2 (Homo sapiens, UniProt P05177).
T2 sequence (P05177 whole entry): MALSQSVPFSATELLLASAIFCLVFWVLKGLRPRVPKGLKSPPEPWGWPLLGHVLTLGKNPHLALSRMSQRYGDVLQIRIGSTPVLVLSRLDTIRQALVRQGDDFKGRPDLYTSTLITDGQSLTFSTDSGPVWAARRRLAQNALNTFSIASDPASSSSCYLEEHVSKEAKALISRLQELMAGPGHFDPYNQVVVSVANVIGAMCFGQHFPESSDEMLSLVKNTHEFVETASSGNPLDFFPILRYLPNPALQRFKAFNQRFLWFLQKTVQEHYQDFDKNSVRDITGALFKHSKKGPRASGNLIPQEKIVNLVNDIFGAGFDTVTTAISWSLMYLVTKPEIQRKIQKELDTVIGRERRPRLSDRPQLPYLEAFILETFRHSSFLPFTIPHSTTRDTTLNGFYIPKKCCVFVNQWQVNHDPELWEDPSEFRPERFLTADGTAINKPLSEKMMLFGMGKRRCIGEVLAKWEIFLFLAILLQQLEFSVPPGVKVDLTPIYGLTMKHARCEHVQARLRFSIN

For data set [4], the target named is T3, Cytochrome P450 2C8 (Homo sapiens, UniProt P10632).
T3 sequence (P10632 whole entry): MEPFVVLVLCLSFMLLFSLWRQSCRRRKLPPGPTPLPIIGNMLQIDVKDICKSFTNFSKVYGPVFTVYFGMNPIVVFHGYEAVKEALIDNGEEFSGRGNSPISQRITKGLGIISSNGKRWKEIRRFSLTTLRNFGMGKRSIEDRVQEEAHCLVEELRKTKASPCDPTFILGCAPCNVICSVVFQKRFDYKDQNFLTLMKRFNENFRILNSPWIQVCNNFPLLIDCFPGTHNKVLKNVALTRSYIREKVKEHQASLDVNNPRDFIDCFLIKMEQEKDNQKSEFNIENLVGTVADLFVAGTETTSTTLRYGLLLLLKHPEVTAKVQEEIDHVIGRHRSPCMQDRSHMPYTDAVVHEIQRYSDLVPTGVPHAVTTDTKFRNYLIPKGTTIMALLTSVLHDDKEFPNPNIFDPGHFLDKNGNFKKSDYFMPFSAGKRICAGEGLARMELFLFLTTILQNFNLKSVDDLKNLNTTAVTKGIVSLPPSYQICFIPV

In data set [5] the target is Cytochrome P450 2C9 (Homo sapiens, UniProt P11712).
Chain of Cytochrome P450 2C9 (P11712 whole entry): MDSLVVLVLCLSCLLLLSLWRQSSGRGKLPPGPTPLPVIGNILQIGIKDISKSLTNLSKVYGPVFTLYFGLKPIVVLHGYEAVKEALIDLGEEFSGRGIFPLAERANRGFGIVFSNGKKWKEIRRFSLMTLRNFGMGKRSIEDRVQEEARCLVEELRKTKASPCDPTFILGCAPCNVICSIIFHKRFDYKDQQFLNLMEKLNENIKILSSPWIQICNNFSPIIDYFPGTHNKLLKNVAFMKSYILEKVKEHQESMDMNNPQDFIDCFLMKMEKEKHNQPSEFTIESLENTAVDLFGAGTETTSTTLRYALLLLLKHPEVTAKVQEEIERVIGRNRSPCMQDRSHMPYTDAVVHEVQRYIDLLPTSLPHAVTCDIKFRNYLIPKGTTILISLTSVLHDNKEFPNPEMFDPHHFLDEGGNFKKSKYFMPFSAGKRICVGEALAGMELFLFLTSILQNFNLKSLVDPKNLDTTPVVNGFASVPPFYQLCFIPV
In data set [6] the target is Cytochrome P450 2C19 (Homo sapiens, UniProt P33261).
Chain of Cytochrome P450 2C19 (P33261 whole entry): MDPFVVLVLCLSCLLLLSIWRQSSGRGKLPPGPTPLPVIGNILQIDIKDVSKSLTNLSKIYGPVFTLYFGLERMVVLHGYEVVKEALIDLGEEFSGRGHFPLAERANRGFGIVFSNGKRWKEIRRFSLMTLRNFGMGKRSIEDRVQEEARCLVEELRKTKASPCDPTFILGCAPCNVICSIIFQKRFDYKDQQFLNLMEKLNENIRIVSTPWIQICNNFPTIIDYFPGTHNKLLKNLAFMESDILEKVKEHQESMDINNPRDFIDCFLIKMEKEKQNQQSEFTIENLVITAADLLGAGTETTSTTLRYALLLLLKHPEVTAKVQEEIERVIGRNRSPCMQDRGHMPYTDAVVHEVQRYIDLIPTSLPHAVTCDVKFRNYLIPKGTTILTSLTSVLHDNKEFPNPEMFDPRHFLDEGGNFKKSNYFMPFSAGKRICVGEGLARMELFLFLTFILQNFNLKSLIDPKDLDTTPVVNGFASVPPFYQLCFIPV
In data set [7] the target is Cytochrome P450 2D6 (Homo sapiens, UniProt P10635).
Chain of Cytochrome P450 2D6 (P10635 whole entry): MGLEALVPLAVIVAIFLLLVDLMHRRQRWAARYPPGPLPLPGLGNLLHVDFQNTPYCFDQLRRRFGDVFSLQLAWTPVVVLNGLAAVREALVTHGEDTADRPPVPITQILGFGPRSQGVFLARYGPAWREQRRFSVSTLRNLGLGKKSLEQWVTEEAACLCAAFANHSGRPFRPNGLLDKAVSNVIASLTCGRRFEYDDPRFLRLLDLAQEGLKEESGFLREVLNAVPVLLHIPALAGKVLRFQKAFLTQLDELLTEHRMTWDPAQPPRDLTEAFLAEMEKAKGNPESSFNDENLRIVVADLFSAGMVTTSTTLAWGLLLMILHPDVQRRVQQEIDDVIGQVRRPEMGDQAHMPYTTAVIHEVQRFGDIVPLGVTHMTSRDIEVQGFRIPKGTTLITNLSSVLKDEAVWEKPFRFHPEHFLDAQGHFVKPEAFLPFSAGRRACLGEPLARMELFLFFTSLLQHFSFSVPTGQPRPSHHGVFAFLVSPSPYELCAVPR
Where [8] appears, read: recombinant CYP2J2, probe terfenadine (hydroxylation).
[9] abbreviates: recombinant CYP2J2, probe astemizole (O-demethylation).

Each structure is given as a SMILES string. Counter-ions that a name gives are not always drawn.

`CCOC(=O)[C@H](CCc1ccccc1)N[C@@H](C)C(=O)N1Cc2ccccc2C[C@H]1C(=O)O`: the activity at 5 min, 30 µM is 51.4% in data set [1] (setting [8]) and 64.1% in data set [2] (setting [9]).
By IC50 is commonly meant the midpoint of a concentration-inhibition curve. On to `COc1ccc(CCN(C)CCCC(C#N)(c2ccc(OC)c(OC)c2)C(C)C)cc1OC` (stereo not given), for which the activity at 5 min, 30 µM in data set [1] (setting [8]) stood at 1.3%; in data set [2] (setting [9]), 69.1%. This compound yielded a half-maximal inhibitory concentration (IC50) in data set [3] of over 30 µM.
For `O[C@@H](c1cc(C(F)(F)F)nc2c(C(F)(F)F)cccc12)[C@H]1CCCCN1` (relative stereo) [(S,R)-MEFLOQUINE], the activity at 5 min, 30 µM stood at 22.4% in data set [1] (setting [8]) and 44.6% in data set [2] (setting [9]). The compound further yielded an IC50 in data set [4] of over 30 µM.
Consider `CCCSc1ccc2nc(NC(=O)OC)[nH]c2c1` [ALBENDAZOLE], for which the IC50 in data set [5], in data set [6], in data set [4], in data set [3] and in data set [7] was over 30 µM each time.
Regarding `CCN(CC)Cc1cc(Nc2ccnc3cc(Cl)ccc23)ccc1O` [AMODIAQUINE], the activity at 5 min, 30 µM in data set [1] (setting [8]) came to 22.5%; in data set [2] (setting [9]), 7.7%.
As for `CC(C)COCC(CN(Cc1ccccc1)c1ccccc1)N1CCCC1` (stereo not given) [BEPRIDIL], the IC50 in data set [4], in data set [3] and in data set [7] was over 30 µM in each case.
For `CCCC1O[C@@H]2C[C@H]3[C@@H]4CCC5=CC(=O)C=C[C@]5(C)[C@H]4[C@@H](O)C[C@]3(C)[C@]2(C(=O)CO)O1` (stereo not given in full) [BUDESONIDE], in data set [1] (setting [8]), the activity at 5 min, 30 µM came to 50.8%.
As for `CCN(CC)CCOc1ccc(C(=C(Cl)c2ccccc2)c2ccccc2)cc1` [CLOMIPHENE], the activity at 5 min, 30 µM turned out to be 44.2% in data set [1] (setting [8]) and 109% in data set [2] (setting [9]).
Consider `Clc1ccccc1C(c1ccccc1)(c1ccccc1)n1ccnc1` [CLOTRIMAZOLE], for which the activity at 5 min, 30 µM in data set [1] (setting [8]) amounted to 14.1%; in data set [2] (setting [9]) it was 5.6%. In addition, the IC50 in data set [5] was determined as 0.136 µM; in data set [6], 7.41 µM; in data set [7], 0.883 µM.
With `CN(C)CCC=C1c2ccccc2C=Cc2ccccc21` [CYCLOBENZAPRINE], the values for the activity at 5 min, 30 µM in data set [1] (recombinant enzyme) and in data set [2] (recombinant enzyme) were 48.9% and 65.9%, respectively.
Regarding `C#C[C@]1(O)CC[C@H]2[C@@H]3CCC4=Cc5oncc5C[C@]4(C)[C@H]3CC[C@@]21C` [DANAZOL], the activity at 5 min, 30 µM came out at 1.6% in data set [1] (setting [8]) and 8% in data set [2] (setting [9]). The half-inhibitory concentration (IC50) in data set [4] was 1.95 µM; in data set [3], over 30 µM.
As for `O=c1[nH]c2ccccc2n1CCCN1CCC(n2c(=O)[nH]c3cc(Cl)ccc32)CC1` [DOMPERIDONE], the values for the activity at 5 min, 30 µM in data set [1] (setting [8]) and in data set [2] (setting [9]) were 43.5% and 50.5%, respectively.
Consider `CNCCC(Oc1ccc(C(F)(F)F)cc1)c1ccccc1` (stereo not given) [FLUOXETINE], for which the results for the activity at 5 min, 30 µM in data set [1] (recombinant enzyme) and in data set [2] (recombinant enzyme) were 44.3% and 87%, respectively.
Turning to `COCCCC/C(=N\OCCN)c1ccc(C(F)(F)F)cc1` [FLUVOXAMINE], the activity at 5 min, 30 µM in data set [1] (setting [8]) came out at 48.7%; in data set [2] (setting [9]), 54.4%.
For the compound `O=C(CCCN1CCC(O)(c2ccc(Cl)cc2)CC1)c1ccc(F)cc1` [HALOPERIDOL], the activity at 5 min, 30 µM in data set [1] (setting [8]) worked out at 15.6%; in data set [2] (setting [9]), 14.7%.
In the case of `COC(=O)C1=C(C)NC(C)=C(C(=O)OC(C)C)C1c1cccc2nonc12` (stereo not given) [ISRADIPINE], the activity at 5 min, 30 µM in data set [1] (setting [8]) is 23.7%; in data set [2] (setting [9]), 13.6%. The same compound had an IC50 in data set [3] of 28.3 µM.
In the case of `CC(=O)N1CCN(c2ccc(OCC3COC(Cn4ccnc4)(c4ccc(Cl)cc4Cl)O3)cc2)CC1` (stereo not given) [KETOCONAZOLE], the activity at 5 min, 30 µM was found to be 5.8% in data set [1] (setting [8]) and 5.4% in data set [2] (setting [9]).
`Cc1c(OCC(F)(F)F)ccnc1C[S+]([O-])c1nc2ccccc2[nH]1` (stereo not given) [LANSOPRAZOLE]: the activity at 5 min, 30 µM in data set [1] (setting [8]) was 0.7%; in data set [2] (setting [9]), 71.1%. The IC50 is 19.2 µM in data set [5]; 13.4 µM in data set [6]; 5.75 µM in data set [4]; 6.46 µM in data set [3]; 2.9 µM in data set [7].
In the case of `CCOC(=O)N1CCC(=C2c3ccc(Cl)cc3CCc3cccnc32)CC1` [LORATADINE], the figures for the activity at 5 min, 30 µM in data set [1] (recombinant enzyme) and in data set [2] (recombinant enzyme) were 11.4% and 4%, respectively. For the same compound, the IC50 in data set [4] is 2.95 µM.
As to `CC[C@H](C)C(=O)O[C@H]1C[C@@H](C)C=C2C=C[C@H](C)[C@H](CC[C@@H]3C[C@@H](O)CC(=O)O3)[C@H]21` [LOVASTATIN], the activity at 5 min, 30 µM was found to be 37.7% in data set [1] (setting [8]) and 13.6% in data set [2] (setting [9]).
For the compound `CCC(=O)C(CC(C)N(C)C)(c1ccccc1)c1ccccc1` (stereo not given) [METHADONE], the activity at 5 min, 30 µM in data set [1] (setting [8]) was 43%; in data set [2] (setting [9]), 123%.
Take `Clc1ccc(COC(Cn2ccnc2)c2ccc(Cl)cc2Cl)c(Cl)c1` (stereo not given) [MICONAZOLE]: the activity at 5 min, 30 µM in data set [1] (setting [8]) came to 3.4%; in data set [2] (setting [9]), 10.1%.
`COC(=O)C1=C(C)NC(C)=C(C(=O)OCCN(C)Cc2ccccc2)C1c1cccc([N+](=O)[O-])c1` (stereo not given) [NICARDIPINE]: the figures for the activity at 5 min, 30 µM in data set [1] (recombinant enzyme) and in data set [2] (recombinant enzyme) were 8.9% and 5.8%, respectively.
Take `CNCCC=C1c2ccccc2CCc2ccccc21` [NORTRIPTYLINE]: the activity at 5 min, 30 µM was 45.3% in data set [1] (recombinant enzyme) and 70.1% in data set [2] (recombinant enzyme).
`COc1ccc2[nH]c([S+]([O-])Cc3ncc(C)c(OC)c3C)nc2c1` (stereo not given) [OMEPRAZOLE]: the results for the activity at 5 min, 30 µM in data set [1] (setting [8]) and in data set [2] (setting [9]) were 46.1% and 70.5%, respectively.
Turning to `Cc1ccccc1C(OCCN(C)C)c1ccccc1` (stereo not given) [ORPHENADRINE], the activity at 5 min, 30 µM in data set [1] (setting [8]) came to 1.2%; in data set [2] (setting [9]), 102%. The half-inhibitory concentration (IC50) was over 30 µM in data set [5], 24.2 µM in data set [6], over 30 µM in data set [4] and over 30 µM in data set [3].
Take `Fc1ccc([C@@H]2CCNC[C@H]2COc2ccc3c(c2)OCO3)cc1` [PAROXETINE HYDROCHLORIDE]: the figures for the activity at 5 min, 30 µM in data set [1] (setting [8]) and in data set [2] (setting [9]) were 31.6% and 39%, respectively. Besides, the concentration for half-maximal inhibition (IC50) was over 30 µM in data set [5], over 30 µM in data set [4] and 5.33 µM in data set [3].
Turning to `O=c1[nH]c2ccccc2n1C1CCN(CCCC(c2ccc(F)cc2)c2ccc(F)cc2)CC1` [PIMOZIDE], the activity at 5 min, 30 µM turned out to be 27.3% in data set [1] (setting [8]) and 6.6% in data set [2] (setting [9]). Also, the half-inhibitory concentration (IC50) in data set [4] and in data set [3] was over 30 µM in each case.
On to `O=c1c(O)c(-c2ccc(O)c(O)c2)oc2cc(O)cc(O)c12` [QUERCETIN], for which the values for the activity at 5 min, 30 µM in data set [1] (setting [8]) and in data set [2] (setting [9]) were 29.8% and 44.7%, respectively. Also, in data set [7], half-maximal inhibition (IC50) required 18.8 µM.
As to `CC/C(=C(\c1ccccc1)c1ccc(OCCN(C)C)cc1)c1ccccc1` [TAMOXIFEN], the activity at 5 min, 30 µM in data set [1] (setting [8]) worked out at 11.5%; in data set [2] (setting [9]), 9.1%. The compound further registered a 50% inhibitory concentration (IC50) in data set [4] of 14.3 µM.
For `CSc1ccc2c(c1)N(CCC1CCCCN1C)c1ccccc1S2` (stereo not given) [THIORIDAZINE], the values for the activity at 5 min, 30 µM in data set [1] (setting [8]) and in data set [2] (setting [9]) were 51.7% and 12.9%, respectively.

For the origin of these results see ChEMBL document CHEMBL3526133, “Identifying a selective substrate and inhibitor pair for the evaluation of CYP2J2 activity” (Drug Metab Dispos, 2012).
